# Experimental data from US20250171459A1, “2-METHYL-4',5'-DIHYDROSPIRO[PIPERIDINE-4,7'-THIENO[2,3-C]PYRAN] DERIVATIVES AS INHIBITORS OF APOL1 AND METHODS OF USING SAME” (Vertex Pharmaceuticals Incorporated, priority 2022, published 2025).
# Target: T1, APOL1 (Homo sapiens, UniProt O14791)
# T1 sequence (O14791 1-398 S342G/I384M): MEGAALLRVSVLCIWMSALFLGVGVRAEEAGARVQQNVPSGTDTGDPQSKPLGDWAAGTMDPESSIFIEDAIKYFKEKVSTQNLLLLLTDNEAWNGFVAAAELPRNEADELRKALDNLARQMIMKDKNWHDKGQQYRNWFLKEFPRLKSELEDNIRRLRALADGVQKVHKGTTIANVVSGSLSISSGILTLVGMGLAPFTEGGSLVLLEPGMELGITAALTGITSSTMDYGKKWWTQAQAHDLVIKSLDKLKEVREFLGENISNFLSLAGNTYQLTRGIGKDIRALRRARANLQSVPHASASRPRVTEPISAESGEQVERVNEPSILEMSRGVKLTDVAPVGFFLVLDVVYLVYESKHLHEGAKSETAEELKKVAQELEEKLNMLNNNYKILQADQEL
# Assay: MultiTox-Fluor Multiplex Cytotoxicity Assay in tet-inducible APOL1 T-REx-HEK293 cells (cell rescue, ratio of dead to live cells)
# Format: cell-based
# Conditions: tet-inducible transgenic APOL1 T-REx-HEK293 cell lines, 50 ng/mL tet, 24 hours; read-out: IP50 (i.e., IC50 for cell proliferation)
# Procedure, shortened: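 T-REx-HEK293 cells with tet-inducible APOL1 were treated with compound (10 μM top, 10-point 3-fold dilution, duplicate) plus 50 ng/mL tetracycline for 24 h at 37° C, in DMEM with 2% tet-free FBS. MultiTox-Fluor protease signals gave a dead/live ratio, normalized to no tet (100% viability) and tet alone (0%).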
row,Structure (SMILES),IC50 [nM]
1,CCc1cc2c(s1)CCO[C@@]21CCN(C[C@H]2C[C@@H](NC(=O)C3CC(C)(O)C3)C2)[C@@H](C)C1 (stereo partly drawn) [Compound 344],< 100
2,"Cc1cc2c(s1)CCO[C@@]21CCN(Cc2cn(CCS(C)(=O)=O)nn2)[C@@H](C)C1 [Compound 510, (2′S)-2,2′-dimethyl-1′-[[1-(2-methylsulfonylethyl)triazol-4-yl]methyl]spiro[6,7-dihydrothieno[3,2-c]pyran-4,4′-piperidine]]",< 100
3,Cn1cc(CN2CCC3(CC2)OCCc2sc(Cl)cc23)cn1 [Compound 1168],500 to 1000
4,CCc1cc2c(s1)CCO[C@@]21CCN(Cc2cn(CCSC(F)(F)F)nn2)[C@@H](C)C1 [Compound 22],< 100
5,CCc1cc2c(s1)CCO[C@@]21CCN(Cc2cn(CC(F)(F)C3(O)CCOCC3)nn2)[C@@H](C)C1 [Compound 122],100 to 500
6,CCc1cc2c(s1)CCOC21CCN(Cc2ccc(NC3(CO)CC3)nc2)CC1 [Compound 1070],100 to 500
7,C[C@H]1C[C@@]2(CCN1Cc1cnn(CCC(N)=O)c1)OC[C@@H](O)c1cc(C(F)(F)F)sc12 [Compound 926],< 100
8,CCc1cc2c(s1)CCOC21CCN(Cc2cn(CC3CC(=O)N(CCOC)C3)nn2)C(C)C1 (stereo not drawn) [Compound 116],100 to 500
9,"CCc1cc2c(s1)CCO[C@@]21CCN(C[C@H]2C[C@@H](NC(=O)OC)C2)[C@@H](C)C1 [Compound 302, methyl N-[3-[[(2′S,4R)-2-ethyl-2′-methyl-spiro[6,7-dihydrothieno[3,2-c]pyran-4,4′-piperidine]-1′-yl]methyl]cyclobutyl]carbamate]",< 100
10,CCc1cc2c(s1)CCOC21CCN(Cc2cn(Cc3cc(COC)[nH]n3)nn2)CC1 [Compound 1108],500 to 1000
11,CCc1ncc(CN2CC[C@]3(C[C@@H]2C)OCCc2c3sc(Cl)c2CO)cn1 [Compound 733],100 to 500
12,CCc1cc2c(s1)CCO[C@@]21CCN(Cc2cn(CC(C)(C)C(C)(C)O)nn2)[C@@H](C)C1 [Compound 109],100 to 500
13,CCc1cc2c(s1)CCO[C@@]21CCN(CC2CN(C(=O)CNC(C)=O)C2)[C@@H](C)C1 [Compound 480],100 to 500
14,C[C@H]1C[C@@]2(CCN1Cc1ccc(C(=O)N(C)C)cc1)OCCc1cc(Cl)sc12 [Compound 660],100 to 500
15,CCc1cc2c(s1)CCOC21CCN(Cc2cn(CC3(C)COCCO3)nn2)C(C)C1 (stereo not drawn) [Compound 102],< 100
16,"CCc1cc2c(s1)CCO[C@@]21CCN(CC2CN(S(=O)(=O)CC)C2)[C@@H](C)C1 [Compound 491, (2′S,4R)-2-ethyl-1′-[(1-ethylsulfonylazetidin-3-yl)methyl]-2′-methyl-spiro[6,7-dihydrothieno[3,2-c]pyran-4,4′-piperidine]]",100 to 500
17,"CCc1cc2c(s1)CCO[C@@]21CCN(C2CC[C@@H](NC(=O)OC(C)(C)C)C2)[C@@H](C)C1 (single isomer, unassigned) [Compound 296]",100 to 500
18,CCc1cc2c(s1)CCOC21CCN(Cc2ccc(S(C)(=O)=O)cc2)CC1 [Compound 1148],500 to 1000
19,C[C@H]1C[C@@]2(CCN1CC1CCC(=O)N1)OCCc1cc(CC(F)F)sc12 (stereo partly drawn) [Compound 619],100 to 500
20,CCc1cc2c(s1)CCO[C@@]21CCN(CC2CN(C(=O)CCCOC)C2)[C@@H](C)C1 [Compound 439],< 100
21,C[C@H]1C[C@@]2(CCN1Cc1cnn(CC(C)(C)O)c1)OCCc1c2sc(C(F)(F)F)c1CO [Compound 895],< 100

row,Structure (SMILES),IC50 [nM]
1,CCc1cc2c(s1)CCO[C@@]21CCN(Cc2ccc(N[C@H]3COC[C@@H]3O)nc2)[C@@H](C)C1 [Compound 212],< 100
2,C[C@H]1C[C@@]2(CCN1Cc1ccc(C(=O)N(C)C)cc1)OCCc1c2sc(Cl)c1CO [Compound 743],100 to 500
3,C[C@H]1C[C@@]2(CCN1Cc1cnn(CCS(C)(=O)=O)c1)OCC(O)c1cc(C(F)(F)F)sc12 (stereo partly drawn) [Compound 880],< 100
4,CCc1cc2c(s1)CCOC21CCN(Cc2cnc(C(F)(F)F)[nH]2)CC1 [Compound 1144],500 to 1000
5,C[C@H]1C[C@@]2(CCN1Cc1cnn(C[C@@H](O)C(=O)N(C)C)c1)OC[C@@H](O)c1cc(C(F)(F)F)sc12 [Compound 994],< 100
6,C[C@H]1C[C@@]2(CCN1CCCn1cccn1)OC[C@H](O)c1cc(Cl)sc12 [Compound 815],500 to 1000
7,CNC(=O)Cn1cc(CN2CC[C@]3(C[C@@H]2C)OCCc2cc(Cl)sc23)cn1 [Compound 703],< 100
8,CCc1cc2c(s1)CCO[C@@]21CCN([C@@H]2CC[C@H](NC(=O)OC(C)(C)C)C2)[C@@H](C)C1 [Compound 295],100 to 500
9,CC(O)Cn1cc(CN2CC[C@]3(C[C@@H]2C)OCCc2c3sc(C(F)(F)F)c2CO)cn1 (stereo partly drawn) [Compound 931],< 100
10,"C[C@H]1C[C@@]2(CCN1Cc1cnn(CC3(O)CCOCC3)c1)OCCc1c2sc(C(F)(F)F)c1CO [Compound 943, 4-[[4-[[(2′S, 7R)-3-(hydroxymethyl)-2′-methyl-2-(trifluoromethyl)spiro[4,5-dihydrothieno[2,3-c]pyran-7,4′-piperidine]-1′-yl]methyl]pyrazol-1-yl]methyl]tetrahydropyran-4-ol]",< 100
11,C[C@H]1C[C@@]2(CCN1Cc1cnn(C3CS(=O)(=O)C3)c1)OCCc1c2sc(C(F)(F)F)c1CO [Compound 907],< 100
12,C[C@H]1C[C@@]2(CCN1Cc1cnn(CC3(O)CCC3)c1)OCCc1c2sc(C(F)(F)F)c1CO [Compound 948],< 100
13,CCOC1CO[C@@]2(CCN(Cc3cnn(CCS(C)(=O)=O)c3)[C@@H](C)C2)c2sc(Cl)cc21 (stereo partly drawn) [Compound 844],100 to 500
14,CCc1cc2c(s1)CCO[C@@]21CCN(C[C@H]2C[C@@H](NC(=O)COC)C2)[C@@H](C)C1 [Compound 348],100 to 500
15,CNC(=O)c1cccc(CN2CC[C@]3(C[C@@H]2C)OC[C@H](O)c2cc(Cl)sc23)c1 [Compound 812],100 to 500
16,"CCc1cc2c(s1)CCO[C@@]21CCN(Cc2cnc(N[C@@H]3C=C[C@H](CO)C3)nc2)[C@@H](C)C1 [Compound 200, [(1R,4S)-4-[[5-[[(2′S,4R)-2-ethyl-2′-methyl-spiro[6,7-dihydrothieno[3,2-c]pyran-4,4′-piperidine]-1′-yl]methyl]pyrimidin-2-yl]amino]cyclopent-2-en-1-yl]methanol]",< 100
17,CCc1cc2c(s1)CCO[C@@]21CCN(Cc2cnc(N[C@@H](CO)[C@@H](C)O)nc2)[C@@H](C)C1 [Compound 229],< 100
18,"C[C@H]1C[C@@]2(CCN1Cc1cn(CCS(C)(=O)=O)nn1)OCCc1sc(C(F)F)cc12 [Compound 524, (2′S,4R)-2-(difluoromethyl)-2′-methyl-1′-[[1-(2-methylsulfonylethyl)triazol-4-yl]methyl]spiro[6,7-dihydrothieno[3,2-c]pyran-4,4′-piperidine]]",< 100
19,CCc1cc2c(s1)CCO[C@@]21CCN(C[C@H]2C[C@@H](NC(=O)C3CC3C(=O)N(C)C)C2)[C@@H](C)C1 (stereo partly drawn) [Compound 367],100 to 500
20,"C[C@H]1C[C@@]2(CCN1Cc1cnn(CCC(N)=O)c1)OCCc1c2sc(C(F)(F)F)c1CO [Compound 896, 3-[4-[[(2′S, 7R)-3-(hydroxymethyl)-2′-methyl-2-(trifluoromethyl)spiro[4,5-dihydrothieno[2,3-c]pyran-7,4′-piperidine]-1′-yl]methyl]pyrazol-1-yl]propanamide]",< 100
21,C[C@H]1C[C@@]2(CCN1Cc1ccc[nH]c1=O)OCCc1cc(CC(F)F)sc12 [Compound 577],100 to 500
